Here are results for one compound from patent US9034403B2, “Yeast extract containing γ-Glu-X or γ-Glu-X-Gly and a method for producing the same” (AJINOMOTO CO., INC., priority 2010, dated 2015).

The structures appear in SMILES notation.

The test system of assay [1] is S288C PADH1-HGT1 (Hgt1p overproducing strain) and S288C. Briefly: Peptide uptake of Hgt1p overproducing strain and parental strain S288C, intracellular content on dry weight cell. Type of assay: cell-based, Saccharomyces cerevisiae. As for the experimental part:
(§1) One loop of the S288C strain was inoculated into SD medium (50 ml in a 500 ml-volume Sakaguchi flask), and cultured at 30° C. for 24 hours with shaking at a velocity of 120 rpm. Absorbance of the obtained culture broth was measured, the culture broth was inoculated into SD medium (400 ml in a 2 L-volume conical flask with baffle fins, two or more flasks) so that OD660 was 0.01 at the start of the culture, and culture was performed at 30° C. for 19 hours with shaking by rotation at a velocity of 120 rpm. After 19 hours, γ-Glu-Val-Gly aqueous solutions of various concentrations were added to obtain predetermined concentrations, and the culture was continued for 1 hour. Using these culture broths, the γ-Glu-Val-Gly content in dry cells was calculated in the same manner as in Example 2. Furthermore, the solid content of the extract was calculated, and the amount of γ-Glu-Val-Gly in the solid content was also calculated.
The S288C PADH1-HGT1, Hgt1p overproducing strain obtained in Example 12, and its parental strain S288C, were evaluated for their ability to take up γ-Glu-Val-Gly in the same manners as described in Example 4. The amount of γ-Glu-Val-Gly added into the medium was 100 ppm as a final concentration. As a result, intracellular content of γ-Glu-Val-Gly in S288C on the dry weight cell was about 0.9%, but intracellular content of γ-Glu-Val-Gly in S288C PADH1-HGT1 on the dry weight cell was about 4.9%.
S288C PADH1-HGT1, Hgt1p overproducing strain obtained in Example 12, and its parental strain S288C were evaluated for their γ-Glu-nVal-Gly uptake abilities in the same manners as described in Example 4 and Example 13. The amount of γ-Glu-nVal-Gly added to the medium was 100 ppm as a final concentration.

Assay [2] deals with Saccharomyces cerevisiae S288C strain. As to the kind of experiment: Addition of peptide to medium of S288C strain; peptide content in dry cells and in extract by LC-MS/MS. Type of assay: cell-based. As for the experimental part:
Absorbance of the obtained culture broth was measured, the culture broth was inoculated into SD medium (400 ml in a 2 L-volume conical flask with baffle fins, a pluratity of flasks) so that OD660 was 0.01 at the start of the culture (absorbance was measured by using DU640 SPECTROPHTOMETER, BECKMAN COULTER), and culture was performed at 30° C. for 19 hours with shaking by rotation at a velocity of 120 rpm. From the obtained culture broth, 400 OD units of the cells (1 OD unit is defined as cells contained in 1 ml of culture broth of which OD660 is 1) were collected by centrifugal separation. The supernatant was removed as much as possible, and the residual cells were suspended in 45 ml of Milli-Q water. The cells were collected again by centrifugal separation, and resuspended in 45 ml of Milli-Q water. By repeating this operation 3 times in total, the medium was completely removed from the cells. The washed cells were suspended in about 1.5 ml of Milli-Q water, and the suspension was heated at 70° C. for 10 minutes. By this step, the extractable components contained in the cells were extracted. Then, the extract and the cell residue were separated by centrifugation.
Cell debris were removed from the extract using a centrifugal filtration membrane of 10 kDa (Amicon Ultra—0.5 mL 10K, MILLIPORE, Catalogue Number UFC501096)), the obtained fraction was derivatized with the AQC reagent in the same manner as that used in Example 1, and γ-Glu-Val-Gly and γ-Glu-Val were measured by LC-MS/MS. Separately, the amount of GSH in the cells was measured in a conventional manner (GSH in the extract was derivatized by using a fluorescence reagent ABD-F that binds to thiol group, separated and quantified by HPLC). Furthermore, dry cell weight was measured after the washed cells were dried at 104° C. for 4 hours. From the amounts of γ-Glu-Val-Gly and γ-Glu-Val in the extract prepared from the cells that was contained in a certain volume of culture broth and dry cell weight measured as described above, the amount of these peptides based on weight of dried cells was calculated. […]
as §1, with “calculated. […]” for “calculated.”
The cells were collected from the total culture broth, and washed in the same manner as that of Example 2. The washed cells in an amount of 400 OD units were suspended in 1.5 ml of Milli-Q water. This suspension was maintained at 70° C. for 10 minutes to produce an extract from the yeast cells. Furthermore, the suspension was centrifuged to remove the cell residues and thereby collect only the extract. The γ-Glu-Val-Gly concentration of this extract (extract of addition experiment) was measured to be about 300 ppm, and solid content was about 1%. The γ-Glu-Val-Gly concentration in an extract prepared in the same way but without adding γ-Glu-Val-Gly to the culture broth (extract of no addition experiment) was below the quantitation limit, and solid content was about 1%.
One loop of the S288C strain was inoculated into SD medium (50 ml in a 500 ml-volume Sakaguchi flask), and cultured at 30° C. for 24 hours with shaking at a velocity of 120 rpm. […]

The mark [3] stands for this setting: 0.01 ppm γ-Glu-Val-Gly added to medium after 19 hours, culture continued 1 hour.
[4] abbreviates: 0.1 ppm γ-Glu-Val-Gly added to medium after 19 hours, culture continued 1 hour.
The mark [5] stands for this setting: 1 ppm γ-Glu-Val-Gly added to medium after 19 hours, culture continued 1 hour.
The mark [6] stands for this setting: 5 ppm γ-Glu-Val-Gly added to medium after 19 hours, culture continued 1 hour.
Setting [7] is: 10 ppm γ-Glu-Val-Gly added to medium after 19 hours, culture continued 1 hour.
The mark [8] stands for this setting: 100 ppm γ-Glu-Val-Gly added to medium after 19 hours, culture continued 1 hour.

Turning to `CC(C)[C@H](NC(=O)CC[C@H](N)C(=O)O)C(=O)NCC(=O)O` [γ-Glu-Val-Gly], the “intracellular content of γ-Glu-Val-Gly on the dry weight cell” value is “about 4.9%” in assay [1] (S288C PADH1-HGT1, γ-Glu-Val-Gly 100 ppm added into the medium); “about 0.9%” in assay [1] (S288C, γ-Glu-Val-Gly 100 ppm added into the medium); “about 0.09%” in assay [1] (S288C, γ-Glu-nVal-Gly 100 ppm added to the medium). Besides, the “γ-Glu-Val-Gly content in dry cells” value is reported as 5 ppm in assay [2] (setting [3]); 28 ppm in assay [2] (setting [4]); 363 ppm in assay [2] (setting [5]); 2647 ppm in assay [2] (setting [6]); 5341 ppm in assay [2] (setting [7]); 10191 ppm in assay [2] (setting [8]). Moreover, the “γ-Glu-Val-Gly content in dry cells” value in assay [2] (γ-Glu-Val-Gly 100 ppm added to SD medium in advance, culture 16 hours) is recorded as “about 20,000 ppm”. For the same compound, the “γ-Glu-Val-Gly content in solid content of extract” value in assay [2] (setting [3]) was 21 ppm; in assay [2] (setting [4]), 96 ppm; in assay [2] (setting [5]), 1110 ppm; in assay [2] (setting [6]), 10119 ppm; in assay [2] (setting [7]) it was 17408 ppm; in assay [2] (setting [8]), 32183 ppm. Also, the “γ-Glu-Val-Gly concentration of extract” value in assay [2] (50 ppm γ-Glu-Val-Gly added after 19 hours, culture continued 1 hour, 400 OD units in 1.5 ml, solid content about 1%) is listed as “about 300 ppm”.
